Assay results taken from patent US20250195660A1, “INACTIVATING BACTERIA WITH ELECTRIC PULSES AND ANTIBIOTICS” (Purdue Research Foundation, priority 2018, published 2025).
“Also recorded” adds a separate entry of the source.

Columns and labels:
[1] = test system: gentamicin, streptomycin and sulfonamide resistant Pseudomonas aeruginosa (BEI Resources NR-31040); experiment: Inactivation of P. aeruginosa by 300 ns electric pulses and/or antibiotics (CFU plating); type: cell-based; conditions: for additional inactivation of P. aeruginosa: 20 kV/cm NSEPs + 2 μg/mL or 20 μg/mL
Text: (§1) Except for rifampicin, the five other antibiotics in these examples primarily target gram-positive bacteria and are largely ineffective or not used against gram-negative bacteria in a clinical setting.
(§2) A Blumlein pulsed generator consisting of two lines comprised of twelve 2000 pF capacitors connected by inductors produced 300 ns EPs with rise-times of 30 ns and fall-times of 35 ns at a repetition frequency of 1 Hz (12). The EPs were applied to a standard 2 mm gap electroporation cuvette (Dot Scientific R) filled with a solution containing the microorganisms. Used was a Luria broth of 0.5% salinity (5 grams of NaCl/Liter) for the solution to electrically match the resistance of the sample with the impedance of the pulse generator (11Ω) to prevent signal reflection. The voltage measurements were taken using a LeCroy PPE 20 kV high voltage probe with a 1000:1 attenuation recorded by a TeleDyne LeCroy® Waverunner 6 Zi Oscilloscope with a bandwidth of 4 GHZ.
(§3) The gram-negative strains included a carbapenem-resistant Escherichia coli (ATCC® BA-2452TM, New Delhi metallo-beta-lactamase NDM-1 positive.), Klebsiella pneumoniae (ATCC® BAA-2146TM NDM-I positive), and a gentamicin, streptomycin and sulfonamide resistant Pseudomonas aeruginosa (BEI Resources NR-31040). Assessed was the gram-positive strain of methicillin resistant Staphylococcus aureus (USA300-0114 strain), which is also resistant to erythromycin and tetracycline. Samples were cultured in Luria broth (LB Broth Lennox, powder microbial growth medium, SIGMA-ALDRICH®) by taking 25 mL of broth in a 50 mL sterile conical tube and incubating in a shaker for 16 h at 37° C. Samples were diluted 50% by adding 25 mL media to the incubated sample as we plated controls for each experiment and condition.
(§4) Samples were treated in 2 mm gap cuvettes containing 365 μL of sample between the electrodes, with bio-grade mineral oil added on top of the electrode plates to prevent arcing.
(§5) To establish a common baseline for comparing different NSEP parameters, we fixed the energy density U delivered to the cuvettes according to Formula (1) (above). For 300 ns EPs, 500 EPs at 20 kV/cm and 222 EPs at 30 kV/cm delivered the same energy to the sample.
(§6) Tissue culture Petri dishes from VWR R (15 cm diameter, 10 mm height) were utilized for plating. Each plate was covered with 15 mL of Luria broth (Agar, microbiology tested powder, SIGMA-ALDRICH®), which was prepared by adding 20 g of LB Lennox (SIGMA-ALDRICH) and 15 g/L of agar to water prior to being autoclaved. The salinity of the agar was the same as the LB (0.5% NaCl) to minimize additional environmental stressors on the bacteria.
(§7) Removed was 20 μL from each cuvette and added to 180 μL of PBS in a 96-well dish in triplicate. Each well was then diluted by a ratio of 10:1 five additional times by taking 20 μL of the diluted sample into subsequent wells using multi-channel pipettes (using fresh tips for each dilution). Plated were the six dilutions of each sample two times each by adding 4 μL from each well onto the Petri dish using a multi-channel pipette, which allowed the plating of all three replicates on the same plate to achieve n=6. These plates were then cultured overnight in an incubator at 37° C., and counted the next day.

[2] = test system: carbapenem-resistant Escherichia coli (ATCC BA-2452, NDM-1 positive); experiment: Inactivation of carbapenem-resistant E. coli by 300 ns electric pulses and/or antibiotics (CFU plating); type: cell-based; conditions: drug alone, 2 μg/mL or 20 μg/mL, no EPs
Text: as §1, §2, §3, §4, §5, §6, §7

[3] = test system: Klebsiella pneumoniae (ATCC BAA-2146 NDM-I positive); experiment: Inactivation of K. pneumoniae by 300 ns electric pulses and/or antibiotics (CFU plating); type: cell-based
Text: as §1, §2, §3, §4, §5, §6, §7

[4] = test system: methicillin resistant Staphylococcus aureus (USA300-0114 strain); experiment: Inactivation of MRSA by 300 ns electric pulses and/or antibiotics (CFU plating); type: cell-based
Text: as §1, §2
as §3, with “condition. […]” for “condition.”
Removed was 20 μL from each cuvette and added to 180 μL of PBS in a 96-well dish in triplicate. […] These plates were then cultured overnight in an incubator at 37° C., and counted the next day.

[5] = test system: Stapphylococcus aureus (gram positive bacterium number 25923); experiment: Inactivation of S. aureus by 300 ns electric pulses combined with antibiotic (CFU plating); type: cell-based, Staphylococcus aureus
Procedure: (§8) Equipment. Used was a capacitor based Blumlein pulse generator with a spark gap switch to produce trapezoidal EPs of 300 ns duration at the peak with rise and fall times close to 50 ns. Multiple pulses were delivered at a frequency of 1 Hz.
(§9) The samples were treated in a standard electroporation cuvette (Dot Scientific) whose resistance must match the pulse generator's impedance to prevent pulse reflection. Utilizing Luria broth, containing 0.5% NaCl, in a cuvette with gap distances of 1 mm and 2 mm yielded the best electrical match (no reflections in the measured signal). Used were 2 mm cuvettes to ensure consistency between tests, and the applied voltage was measured across the cuvette using a LeCroy PPE 20 kV high voltage probe with a 1000:1 attenuation feeding into a TeleDyne LeCroy Waverunner 6 Zi Oscilloscope capable of measuring signals up to 4 GHz. Assuming a purely parallel plate geometry with minimal fringing gives an electric field E=V/d, where V is the peak voltage of the applied pulse and d is the gap distance.
(§10) Sample Preparation. These experiments assessed Stapphylococcus aureus (gram positive bacterium number 25923) from ATCC and Esherichia coli (gram negative bacterium number 25922) inoculated in luria broth (LB Broth Lennox, powder microbial growth medium. SIGMA-ALDRICH) by taking 8 mL of broth in a 50 mL sterile conical tube and incubating in a shaker for 20 h at 37° C. The sample was then diluted with fresh Luria broth until attaining an optical density of 0.25 for 100 μL on a photospectrometer (Molecular Devices) for a wavelength of 562 nm as measured in a 96-well plate. The optical density, which varies with growth or tube volume, was determined experimentally and set between 1×10^8 and 1.5×10^8 colony forming units (CFUs)/mL for the samples to be pulsed. These samples were then plated at dilutions between 10-6 and 100 (no dilution) depending on the effectiveness of the pulse treatments.
(§11) Electric Pulse Treatment Protocol. […] Although no consensus exists on a universal scaling law for applied EP “dose,” we fixed the energy density
(§12) [formula] • where N is the number of pulses and τ is the pulse duration. Fixing U for E=40, 30, and 20 kV/cm gave N=250, 445, and 1000 pulses, respectively. Cultures were plated as described below.
Cuvettes were filled with 365 μL of sample (sufficient to just cover the electrodes) and then 250 μL of molecular biology grade mineral oil was placed on top. Keeping the samples on ice upon achieving the required dilution further reduced experimental variability by slowing biological processes, such as fission This facilitated the assessment of the inactivation efficiency of EPs, drugs, and combined treatments.
Tests used the clinically relevant, bactericidal drug tobramycin, which targets the 30S and 50S ribosome complex and has a clinical dose from 4 to 5 μg/mL and rifampicin, which inhibits bacterial […]. Added were 0.2, 2, and 20 μg/mL of each drug to the initial bacterial dilutions prior to pulsing. Samples were immediately placed on ice to minimize cell division and reduce variability. These aliquots were also used to plate individual unpulsed controls for each drug concentration.
(§13) Plating. Plating was done on standard disposable tissue culture Petri dishes from VWR (15 cm diameter, 10 mm height) and covered with 10 mL of agar in luria broth (Agar, microbiology tested powder, SIGMA-ALDRICH), which was prepared by adding 20 g of LB lennox (SIGMA-ALDRICH) and 15 g/L of agar to water and then autoclaved.
(§14) Plated were samples at dilutions of 10^−6 and 10^−3 for low and high electric field treatments, respectively, and at 10^−6 and 10^−5 for controls All samples containing 100 μL of pulsed or diluted cultures were plated on LB agar plates and counted after overnight incubation at 37° C. […]

bacteria = experiment: Low-dose tobramycin combined with a train of NSEPs, bacterium not specified; type: cell-based; conditions: 0.2 μg/mL, 1/20th of the recommended clinical dose; whole process approximately 15 min
Text: as §8
as §10, with “These samples were then plated at dilutions between 10-6 and 100 (no dilution) depending on the effectiveness of the pulse treatments.” left out
as §14

[6] = test system: Esherichia coli (gram negative bacterium number 25922); experiment: Inactivation of E. coli by 300 ns electric pulses combined with antibiotic (CFU plating); type: cell-based, Escherichia coli; design: synergy, E. coli: dose or concentration left out as unconfirmed
Procedure: as §8
as §9, with “Utilizing Luria broth, containing 0.5% NaCl, in a cuvette with gap distances of 1 mm and 2 mm yielded the best electrical match (no reflections in the measured signal).” left out
as §10, §11, §12
Cuvettes were filled with 365 μL of sample (sufficient to just cover the electrodes) and then 250 μL of molecular biology grade mineral oil was placed on top.
Added were 0.2, 2, and 20 μg/mL of each drug to the initial bacterial dilutions prior to pulsing. Samples were immediately placed on ice to minimize cell division and reduce variability. These aliquots were also used to plate individual unpulsed controls for each drug concentration.
as §13
Plated were samples at dilutions of 10^−6 and 10^−3 for low and high electric field treatments, respectively, and at 10^−6 and 10^−5 for controls All samples containing 100 μL of pulsed or diluted cultures were plated on LB agar plates and counted after overnight incubation at 37° C.
Pulsing with drugs: bacterial samples of both gram-positive S. aureus and gram-negative E. coli strains were pulsed in a solution with 0.2, 2, and 20 μg/mL of tobramycin and compared to an un-pulsed drug-exposed control. Pulsing and plating were performed to ensure that the drug exposure time of the bacteria was approximately fifteen minutes.

[7] = same energy, different electric fields and number of pulses, different concentrations, vs antibiotic alone

CN[C@H](CC(C)C)C(=O)N[C@H]1C(=O)N[C@@H](CC(N)=O)C(=O)N[C@H]2C(=O)N[C@H]3C(=O)N[C@H](C(=O)N[C@H](C(=O)O)c4cc(O)cc(O)c4-c4cc3ccc4O)[C@H](O)c3ccc(c(Cl)c3)Oc3cc2cc(c3O[C@@H]2O[C@H](CO)[C@@H](O)[C@H](O)[C@H]2O[C@H]2C[C@](C)(N)[C@H](O)[C@H](C)O2)Oc2ccc(cc2Cl)[C@H]1O [vancomycin]
additional inactivation of P. aeruginosa [1]: no additional inactivation
log reduction of P. aeruginosa ([1]; 30 kV/cm NSEPs + 2 μg/mL): up to 2 log
synergy, P. aeruginosa ([1]; 30 kV/cm NSEPs + 2 μg/mL): synergy
change in E. coli population [2]: induced changes
additional inactivation compared to NSEPs alone, K. pneumoniae ([3]; 30 kV/cm NSEPs + 2 μg/mL): 1 log
log reduction of K. pneumoniae ([3]; 30 kV/cm NSEPs + 2 μg/mL): 5 log

CC[C@H]1OC(=O)[C@H](C)[C@@H](O[C@H]2C[C@@](C)(OC)[C@@H](O)[C@H](C)O2)[C@H](C)[C@@H](O[C@@H]2O[C@H](C)C[C@H](N(C)C)[C@H]2O)[C@](C)(O)C[C@@H](C)C(=O)[C@H](C)[C@@H](O)[C@]1(C)O [erythromycin]
additional inactivation of P. aeruginosa [1]: no additional inactivation
change in E. coli population [2]: induced changes

C/C(=C\C(=O)OCCCCCCCCC(=O)O)C[C@@H]1OC[C@H](C[C@@H]2O[C@H]2[C@@H](C)[C@H](C)O)[C@@H](O)[C@H]1O [mupirocin]
additional inactivation of P. aeruginosa [1]: no additional inactivation
change in E. coli population [2]: induced changes
inactivation of K. pneumoniae vs NSEPs ([3]; 20 kV/cm NSEPs + 2 μg/mL): slight increase
inactivation of K. pneumoniae vs NSEPs ([3]; 20 kV/cm NSEPs + 20 μg/mL): an increase
additional inactivation compared to NSEPs alone, K. pneumoniae ([3]; 30 kV/cm NSEPs + 2 μg/mL): 1 log
synergy (synergistic inactivation), MRSA ([4]; 20 μg/mL + 30 kV/cm EPs): approximately 1.5 log
MRSA 300 inactivation compared to using only the NSEPs ([4]; 20 μg/mL + 30 kV/cm NSEPs): improvement

NC[C@H]1O[C@H](O[C@H]2[C@H](O)[C@@H](O[C@H]3O[C@H](CO)[C@@H](O)[C@H](N)[C@H]3O)[C@H](N)C[C@@H]2N)[C@H](N)C[C@@H]1O [tobramycin]
reduction in S. aureus population ([5]; 20 kV/cm EPs + 0.2 μg/mL): 10-20%
log-reduction of S. aureus ([5]; 20 kV/cm EPs + 2 μg/mL): 1.5 log
log-reduction of S. aureus ([5]; 20 kV/cm EPs + 20 μg/mL): 2.6 log
synergy (additional inactivation induced by the antimicrobial for a given pulse condition), S. aureus ([5]; 20 kV/cm pulse trains, 0.2 μg/mL): no synergy
synergy, S. aureus ([5]; 20 kV/cm pulse trains, 2.0 μg/mL): 1.5 log
synergy, S. aureus ([5]; 30 and 40 kV/cm pulse trains, 2 and 20 μg/mL doses): synergies occurred
effect of combining trains of 300 ns EPs with antibiotic on amount of viable S. aureus [5, 7]: synergistically reduced; also recorded: significantly greater inactivation
synergy with NSEPs (bacteria): Synergy occurred
synergy, E. coli ([6]; 20 kV/cm treatment): did not
synergy, E. coli ([6]; 30 and 40 kV/cm treatments): exhibited synergy
reduction of E. coli ([6]; 40 kV/cm EPs combined with antibiotic, considered complete sterilization): over 9 log-10
synergy, E. coli ([6]; any of the applied electric fields, any concentration (FIG. 5B)): experienced synergy
effect of combining trains of 300 ns EPs with antibiotic on amount of viable E. coli [6, 7]: synergistically reduced; also recorded: significantly greater inactivation

CC(=O)O[C@H]1C[C@@]2(C)[C@@H](C[C@@H](O)[C@H]3[C@@]4(C)CC[C@@H](O)[C@@H](C)[C@@H]4CC[C@@]32C)/C1=C(\CCC=C(C)C)C(=O)O [fusidic acid]
change in E. coli population [2]: induced changes

CC(=O)NC[C@H]1CN(c2ccc(N3CCOCC3)c(F)c2)C(=O)O1 [linezolid]
synergy (FIG. 11B legend) ([1]; 20 kV/cm EPs + 20 μg/mL): approximately 2 log
additional inactivation of P. aeruginosa [1]: no additional inactivation
change in E. coli population [2]: induced changes
log reduction of K. pneumoniae / improvement over the NSEPs ([3]; 30 kV/cm NSEPs + 20 μg/mL): did not induce a statistically significant improvement
